“And” between values parts separate entries of the source, which are not always exact repeats. Identical values can stand only once. Toxic doses and inconclusive results are not listed.
Test system: L1210 leukemia ip in BDF1 mice, survival T/C
Assay: NCI In Vivo Anticancer Drug Screen. Data for tumor model L1210 Leukemia (intraperitoneal) in B6D2F1 (BDF1) mice
Conditions: endpoint: mean survival time, higher = longer survival
Summary of the method: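 In this screen, tumor-bearing mice given compound are compared to those given vehicle, and their survival values are reported as a treated-to-control quotient.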

[1] = dose: 100.0 mg/kg/injection, schedule: Q04DX002 (ip), vehicle: saline with Tween-80
[2] = dose: 200.0 mg/kg/injection, schedule: Q04DX002 (ip), vehicle: saline with Tween-80
[3] = dose: 400.0 mg/kg/injection, schedule: Q04DX002 (ip), vehicle: saline with Tween-80
[4] = dose: 100.0 mg/kg/injection, schedule: Q01DX001 (ip), vehicle: carboxymethylcellulose (CMC)
[5] = dose: 200.0 mg/kg/injection, schedule: Q01DX001 (ip), vehicle: carboxymethylcellulose (CMC)
[6] = dose: 400.0 mg/kg/injection, schedule: Q01DX001 (ip), vehicle: carboxymethylcellulose (CMC)
[7] = dose: 100.0 mg/kg/injection, schedule: Q01DX009 (ip), vehicle: Klucel (hydroxypropylcellulose) (HPC)
[8] = dose: 200.0 mg/kg/injection, schedule: Q01DX009 (ip), vehicle: Klucel (hydroxypropylcellulose) (HPC)
[9] = dose: 400.0 mg/kg/injection, schedule: Q01DX009 (ip), vehicle: Klucel (hydroxypropylcellulose) (HPC)
[10] = dose: 100.0 mg/kg/injection, schedule: Q01DX009 (ip), vehicle: saline
[11] = dose: 200.0 mg/kg/injection, schedule: Q01DX009 (ip), vehicle: saline
[12] = dose: 100.0 mg/kg/injection, schedule: Q01DX001 (ip), vehicle: saline with Tween-80
[13] = dose: 200.0 mg/kg/injection, schedule: Q01DX001 (ip), vehicle: saline with Tween-80
[14] = dose: 400.0 mg/kg/injection, schedule: Q01DX001 (ip), vehicle: saline with Tween-80
[15] = dose: 100.0 mg/kg/injection, schedule: Q04DX002 (ip), vehicle: saline
[16] = dose: 200.0 mg/kg/injection, schedule: Q04DX002 (ip), vehicle: saline
[17] = dose: 400.0 mg/kg/injection, schedule: Q04DX002 (ip), vehicle: saline
[18] = dose: 100.0 mg/kg/injection, schedule: Q01DX009 (ip), vehicle: saline with Tween-80
[19] = dose: 200.0 mg/kg/injection, schedule: Q01DX009 (ip), vehicle: saline with Tween-80
[20] = dose: 100.0 mg/kg/injection, schedule: Q04DX002 (ip), vehicle: Klucel (hydroxypropylcellulose) (HPC)
[21] = dose: 200.0 mg/kg/injection, schedule: Q04DX002 (ip), vehicle: Klucel (hydroxypropylcellulose) (HPC)
[22] = dose: 400.0 mg/kg/injection, schedule: Q04DX002 (ip), vehicle: Klucel (hydroxypropylcellulose) (HPC)
[23] = dose: 100.0 mg/kg/injection, schedule: Q01DX001 (ip), vehicle: saline
[24] = dose: 200.0 mg/kg/injection, schedule: Q01DX001 (ip), vehicle: saline
[25] = dose: 400.0 mg/kg/injection, schedule: Q01DX001 (ip), vehicle: saline

Q: With `O=c1[nH]cc(F)c(=O)n1C1OC(CO)C(O)C1O` (stereo not drawn) as the molecule, how does the T/C (dose: 0.78 mg/kg/injection, schedule: Q01DX009 (ip), vehicle: saline) read?
A: 124 % of control

Q: And the T/C (dose: 1.5 mg/kg/injection, schedule: Q01DX009 (ip), vehicle: saline)?
A: 159 % of control

Q: What about the T/C (dose: 1.56 mg/kg/injection, schedule: Q01DX009 (ip), vehicle: saline) of the same molecule?
A: 152 % of control

Q: And the T/C (dose: 3.12 mg/kg/injection, schedule: Q01DX005 (ip), vehicle: saline)?
A: 167 % of control

Q: And the T/C (dose: 3.12 mg/kg/injection, schedule: Q01DX009 (ip), vehicle: saline)?
A: 173 % of control

Q: What about the T/C (dose: 6.0 mg/kg/injection, schedule: Q01DX009 (ip), vehicle: saline) of the same molecule?
A: 97 % of control

Q: What about the T/C (dose: 6.25 mg/kg/injection, schedule: Q01DX005 (ip), vehicle: saline) of the same molecule?
A: 171 % of control

Q: And the T/C (dose: 6.25 mg/kg/injection, schedule: Q01DX009 (ip), vehicle: saline)?
A: 204 % of control

Q: What about the T/C (dose: 12.5 mg/kg/injection, schedule: Q01DX009 (ip), vehicle: saline) of the same molecule?
A: 231 % of control

Q: And the T/C (dose: 18.8 mg/kg/injection, schedule: Q04DX003 (ip), vehicle: saline)?
A: 107 % of control

Q: And the T/C (dose: 25.0 mg/kg/injection, schedule: Q01DX009 (ip), vehicle: saline)?
A: 118 % of control

Q: And the T/C (dose: 25.0 mg/kg/injection, schedule: Q04DX003 (ip), vehicle: saline)?
A: 105 % of control

Q: And the T/C (dose: 37.5 mg/kg/injection, schedule: Q04DX003 (ip), vehicle: saline)?
A: 110 % of control

Q: What about the T/C (dose: 50.0 mg/kg/injection, schedule: Q04DX003 (ip), vehicle: saline) of the same molecule?
A: 110 % of control

Q: And the T/C (dose: 178.0 mg/kg/injection, schedule: Q01DX009 (ip), vehicle: saline)?
A: 165 % of control

Q: And the T/C (dose: 267.0 mg/kg/injection, schedule: Q01DX009 (ip), vehicle: saline)?
A: 163 % of control

Q: And the T/C (dose: 400.0 mg/kg/injection, schedule: Q01DX009 (ip), vehicle: saline)?
A: 150 % of control

Q: What about the T/C (dose: 600.0 mg/kg/injection, schedule: Q01DX009 (ip), vehicle: saline) of the same molecule?
A: 171 % of control

Q: What does the source list for `CCOC(=O)c1cc(/C=C/C=O)oc1N`?
A: T/C [1]: 106 % of control; T/C [2]: 101 % of control; T/C [3]: 97 % of control

Q: What does the source list for `CC1=NN(c2ccccc2)C(=O)C1N=Nc1ccc(S(=O)(=O)Nc2ccccn2)cc1` (stereo not drawn)?
A: T/C [4]: 97 % of control; T/C [5]: 94 % of control; T/C [6]: 97 % of control

Q: What does the source list for `COc1cc(C(=O)Nc2ccc(F)cc2)cc(OC)c1OC`?
A: T/C [7]: 92 % of control; T/C [8]: 97 % of control; T/C [9]: 94 % of control

Q: `CN(C)CCN(C)CCN(C)CCN(C)C` was tested. Which T/C [10] did it give?
A: 95 % of control

Q: What about the T/C [11] of the same molecule?
A: 100 % of control

Q: What does the source list for `FC(F)(F)Cc1cccc(C(F)(F)F)c1`?
A: T/C [12]: 113 % of control; T/C [13]: 103 % of control; T/C [14]: 105 % of control

Q: How did the T/C (dose: 10.0 mg/kg/injection, schedule: Q01DX009 (ip), vehicle: Klucel (hydroxypropylcellulose) (HPC)) turn out when `c1ccc(-c2oc3ccc4ccccc4c3c2-c2ccc(OCCN3CCCC3)cc2)cc1` was run?
A: 102 % of control

Q: And the T/C (dose: 20.0 mg/kg/injection, schedule: Q01DX009 (ip), vehicle: Klucel (hydroxypropylcellulose) (HPC))?
A: 101 % of control

Q: And the T/C (dose: 40.0 mg/kg/injection, schedule: Q01DX009 (ip), vehicle: Klucel (hydroxypropylcellulose) (HPC))?
A: 101 % of control

Q: What about the T/C (dose: 80.0 mg/kg/injection, schedule: Q01DX009 (ip), vehicle: Klucel (hydroxypropylcellulose) (HPC)) of the same molecule?
A: 101 % of control

Q: For `C=C1C(=O)OC2CCCC/C=C\C12` (stereo not drawn), which T/C (dose: 50.0 mg/kg/injection, schedule: Q01DX009 (ip), vehicle: saline) is on record?
A: 95 % of control

Q: What about the T/C [10] of the same molecule?
A: 98 % of control

Q: And the T/C [11]?
A: 95 % of control

Q: For `N#Cc1cc(Cl)c(OCc2ccccc2)c(Cl)c1`, which T/C (dose: 50.0 mg/kg/injection, schedule: Q01DX001 (ip), vehicle: saline with Tween-80) is on record?
A: 102 % of control

Q: What about the T/C [12] of the same molecule?
A: 104 % of control

Q: What about the T/C [13] of the same molecule?
A: 95 % of control

Q: Which results are given for `CC(=O)Nc1ccc(-c2cnc3ccccc3c2)cc1`?
A: T/C (dose: 5.0 mg/kg/injection, schedule: Q01DX001 (ip), vehicle: saline): 106 % of control; T/C (dose: 10.0 mg/kg/injection, schedule: Q01DX001 (ip), vehicle: saline): 106 % of control; T/C (dose: 20.0 mg/kg/injection, schedule: Q01DX001 (ip), vehicle: saline): 97 % of control; T/C (dose: 40.0 mg/kg/injection, schedule: Q01DX001 (ip), vehicle: saline): 90 % of control; T/C (dose: 80.0 mg/kg/injection, schedule: Q01DX001 (ip), vehicle: saline): 95 % of control

Q: What does the source list for `NN=C(NN)NN`?
A: T/C [15]: 98 % of control; T/C [16]: 104 % of control; T/C [17]: 104 % of control

Q: What does the source list for `Cc1ccc(N=Nc2ccc(C)cc2NC(=O)Nc2cc(C)ccc2C)cc1`?
A: T/C [12]: 102 % of control; T/C [18]: 98 % of control; T/C [1]: 87 % of control and 89 % of control; T/C [13]: 109 % of control; T/C [19]: 106 % of control; T/C [2]: 91 % of control; T/C [14]: 90 % of control; T/C (dose: 400.0 mg/kg/injection, schedule: Q01DX009 (ip), vehicle: saline with Tween-80): 102 % of control; T/C [3]: 95 % of control and 89 % of control

Q: Which results are given for `c1cc[c]([Sn]([c]2ccccc2)([c]2ccccc2)[c]2ccccc2)cc1`?
A: T/C (dose: 50.0 mg/kg/injection, schedule: Q01DX009 (ip), vehicle: saline with Tween-80): 95 % of control; T/C [18]: 90 % of control; T/C [19]: 100 % of control

Q: `CC(C)OC(=O)N1CCN(C(=O)OC(C)C)CC1` was tested. Which T/C [7] did it give?
A: 97 % of control

Q: What about the T/C [20] of the same molecule?
A: 93 % of control

Q: And the T/C [8]?
A: 94 % of control

Q: And the T/C [21]?
A: 93 % of control

Q: And the T/C [9]?
A: 102 % of control

Q: And the T/C [22]?
A: 117 % of control

Q: With `COc1cc(C)c2c(c1OC)C(=O)CC2` as the molecule, how does the T/C [23] read?
A: 94 % of control

Q: What about the T/C [24] of the same molecule?
A: 105 % of control

Q: And the T/C [25]?
A: 88 % of control

Q: Which results are given for `CCCCc1c(O)nc(NCCCC(N)C(=O)O)[nH]c1=O` (stereo not drawn)?
A: T/C (dose: 75.0 mg/kg/injection, schedule: Q01DX001 (ip), vehicle: saline): 93 % of control; T/C (dose: 150.0 mg/kg/injection, schedule: Q01DX001 (ip), vehicle: saline): 95 % of control; T/C (dose: 300.0 mg/kg/injection, schedule: Q01DX001 (ip), vehicle: saline): 96 % of control

Q: How did the T/C (dose: 100.0 mg/kg/injection, schedule: Q04DX002 (ip), vehicle: other) turn out when `O=c1ccn(O)cc1` was run?
A: 96 % of control

Q: What about the T/C (dose: 200.0 mg/kg/injection, schedule: Q04DX002 (ip), vehicle: other) of the same molecule?
A: 100 % of control

Q: What about the T/C (dose: 400.0 mg/kg/injection, schedule: Q04DX002 (ip), vehicle: other) of the same molecule?
A: 88 % of control

Q: What does the source list for `ClC(Cl)(Cl)C(N1CCN(c2ccccc2)CC1)N1CCN(c2ccccc2)CC1`?
A: T/C [4]: 101 % of control; T/C [5]: 106 % of control; T/C [6]: 89 % of control

Q: For `CC(C)CCCC(=O)O`, which T/C [23] is on record?
A: 97 % of control

Q: And the T/C [24]?
A: 100 % of control

Q: What about the T/C [25] of the same molecule?
A: 89 % of control

Q: `CC(=O)N(C)C1=C(Sc2ccc(C)cc2)C(=O)c2ccccc2C1=O` was tested. Which T/C (dose: 150.0 mg/kg/injection, schedule: Q01DX001 (ip), vehicle: carboxymethylcellulose (CMC)) did it give?
A: 93 % of control

Q: For `[NH-]C(CCC(N)=O)C(=O)O.[NH-]C(CCC(N)=O)C(=O)O.[Pd+2]` (stereo not drawn), which T/C [15] is on record?
A: 102 % of control

Q: And the T/C (dose: 100.0 mg/kg/injection, schedule: Q04DX003 (ip), vehicle: saline)?
A: 98 % of control

Q: And the T/C [16]?
A: 102 % of control

Q: What about the T/C (dose: 200.0 mg/kg/injection, schedule: Q04DX003 (ip), vehicle: saline) of the same molecule?
A: 92 % of control

Q: What about the T/C [17] of the same molecule?
A: 102 % of control

Q: Which T/C [7] does the source give for `CCOC(COc1ccccc1)c1ccccc1` (stereo not drawn) here?
A: 106 % of control

Q: And the T/C [8]?
A: 113 % of control

Q: What about the T/C [9] of the same molecule?
A: 106 % of control

Q: Which results are given for `O=C(Nc1cccc([N+](=O)[O-])c1)c1cccc(C(=O)Nc2cccc([N+](=O)[O-])c2)c1`?
A: T/C [7]: 94 % of control; T/C [8]: 89 % of control; T/C [9]: 89 % of control

Q: Which T/C [20] does the source give for `O=C(Cc1ccccc1)O/C=C1/CCOC1=O` here?
A: 91 % of control

Q: What about the T/C [21] of the same molecule?
A: 91 % of control

Q: And the T/C [22]?
A: 94 % of control
